Test results taken from patent publication EP0745599A2, “1-(3-Heterocyclylphenyl)-s-triazine-2,4,6-oxo or thiotrione herbicidal agents” (American Cyanamid Company, priority 1995, dated 1996).

Key:
Type in all cases: in vivo
Settings in all cases: rated four to five weeks after treatment
[1] = test system: SETARIA VIRIDIS, (L) BEAU; test: Postemergence herbicidal evaluation, SETVI (Foxtail, Green)
Procedure: (§1) In the tests, seedling plants are grown in jiffy flats for about two weeks. The test compounds are dispersed in 50/50 acetone/water mixtures containing 0.5% TWEEN®20, a polyoxyethylene sorbitan monolaurate surfactant of Atlas Chemical Industries, in sufficient quantities to provide the equivalent of about 0.125 kg to 0.500 kg per hectare of active compound when applied to the plants through a spray nozzle operating at 40 psi for a predetermined time. After spraying, the plants are placed on greenhouse benches and are cared for in the usual manner, commensurate with conventional greenhouse practices. From four to five weeks after treatment, the seedling plants are examined and rated according to the rating system set forth below. Where more than one test is involved for a given compound, the data are averaged.
(§2) Results of herbicide evaluation are expressed on a rating scale (0-9). The scale is based upon a visual observation of plant stand, vigor, malformation, size, chlorosis and overall plant appearance as compared with a control.

[2] = test system: ECHINOCHLOA CRUS-GALLI, (L) BEAU; test: Postemergence herbicidal evaluation, ECHCG (Barnyardgrass)
In short: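 Visual 0-9 ratings (stand, vigor, malformation, size, chlorosis, appearance relative to control) were taken four to five weeks post-spray and averaged across repeat tests. Treatment was a 40 psi foliar spray on two-week seedlings, equivalent to about 0.125-0.500 kg/ha, formulated in acetone/water (50/50) plus 0.5% TWEEN 20.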

[3] = test system: ORYZA SATIVA, L. TEBONNET; test: Postemergence herbicidal evaluation, ORYSAT (Rice, Tebonnet)
Procedure: as §1, §2

[4] = test system: SETARIA VIRIDIS, (L) BEAU; test: Preemergence herbicidal evaluation, SETVI (Foxtail, Green); set-up: key to SETVI: visual rating scale 0-9 vs control
In short: (§3)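 Values are visual ratings from 0 to 9, judged against a control on stand, vigor, malformation, size, chlorosis and overall appearance. Test compound in aqueous acetone was sprayed onto freshly seeded cups at roughly 0.125 to 0.50 kg per hectare, with scoring four to five weeks later.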

GALIUM APARINE = test: Preemergence herbicidal evaluation, GALAP (Galium); set-up: key to GALAP: visual rating scale 0-9 vs control
In short: as §3

CHENOPODIUM ALBUM, L. = test: Preemergence herbicidal evaluation, CHEAL (Lambsquarters, Common); set-up: key to CHEAL: visual rating scale 0-9 vs control
In short: as §3

CASSIA OBTUSIFOLIA, L. [5] = test: Postemergence herbicidal evaluation, CASOB (Sicklepod)
Procedure: as §1, §2

[6] = test system: ABUTILON THEOPHRASTI, MEDIC.; test: Preemergence herbicidal evaluation, ABUTH (Velvetleaf); set-up: key to ABUTH: visual rating scale 0-9 vs control
In short: as §3

ZEA MAYS L. = test: Preemergence herbicidal evaluation, ZEAMX (Corn, Field); set-up: key to ZEAMX: visual rating scale 0-9 vs control
In short: as §3

[7] = test system: AMBROSIA ARTEMISIIFOLIA, L.; test: Preemergence herbicidal evaluation, AMBEL (Ragweed, Common); set-up: key to AMBEL: visual rating scale 0-9 vs control
In short: as §3

[8] = test system: TRITICUM AESTIVUM, CV. APOLLO; test: Postemergence herbicidal evaluation, TRZAWO (Wheat, Winter, CV. APOLLO)
Procedure: as §1, §2

CASSIA OBTUSIFOLIA, L. [9] = test: Preemergence herbicidal evaluation, CASOB (Sicklepod); set-up: key to CASOB: visual rating scale 0-9 vs control
In short: as §3

[10] = test system: TRITICUM AESTIVUM, CV. APOLLO; test: Preemergence herbicidal evaluation, TRZAWO (Wheat, Winter, CV. APOLLO); set-up: key to TRZAWO: visual rating scale 0-9 vs control
In short: as §3

[11] = test system: ECHINOCHLOA CRUS-GALLI, (L) BEAU; test: Preemergence herbicidal evaluation, ECHCG (Barnyardgrass); set-up: key to ECHCG: visual rating scale 0-9 vs control
In short: as §3

[12] = test system: ORYZA SATIVA, L. TEBONNET; test: Preemergence herbicidal evaluation, ORYSAT (Rice, Tebonnet); set-up: key to ORYSAT: visual rating scale 0-9 vs control
In short: as §3

[13] = test system: GLYCINE MAX(L)MERR. CV. WILLIAMS; test: Preemergence herbicidal evaluation, GLXMAW (Soybean, Williams); set-up: key to GLXMAW: visual rating scale 0-9 vs control
In short: as §3

IPOMOEA SPP. = test: Preemergence herbicidal evaluation, IPOSS (Morningglory Spp.); set-up: key to IPOSS: visual rating scale 0-9 vs control
In short: as §3

C#CCn1c(=O)n(CC=C)c(=O)n(-c2cc(N3C(=O)C4=C(CCCC4)C3=O)c(F)cc2Cl)c1=O [Compound 20, N-{5-[3-Allylhexahydro-2,4,6-trioxo-5-(2-propynyl)-s-triazin-1-yl]-4-chloro-2-fluoro-phenyl}-1-cyclohexene-1,2-dicarboximide]
0.0: Herbicide rating (0-9) SETVI ([1]; 0.125 kg/ha) | Herbicide rating (0-9) SETVI ([1]; 0.250 kg/ha) | Herbicide rating (0-9) SETVI ([1]; 0.500 kg/ha) | Herbicide rating (0-9) ECHCG ([2]; 0.125 kg/ha) | Herbicide rating (0-9) ECHCG ([2]; 0.250 kg/ha) | Herbicide rating (0-9) ECHCG ([2]; 0.500 kg/ha)
2.0: Herbicide rating (0-9) ORYSAT ([3]; 0.125 kg/ha) | Herbicide rating (0-9) ORYSAT ([3]; 0.250 kg/ha) | Herbicide rating (0-9) ORYSAT ([3]; 0.500 kg/ha)

CC(C)OC(=O)Cn1c(=O)n(C)c(=O)n(-c2cc(N3C(=O)C4C[S+]([O-])CCN4C3=O)c(F)cc2Cl)c1=O (stereo not drawn) [Compound 14, Isopropyl 3-[2-chloro-4-fluoro-5-(tetra-hydro-1,3,7-trioxo-1H-imidazo[5,1-c][1,4]-thiazin-2(3H)-yl)phenyl]tetrahydro-5-methyl-2,4,6-trioxo-s-triazine-1(2H)-acetate]
5.0: Herbicide rating (0-9) CASOB (CASSIA OBTUSIFOLIA, L. [5]; 0.125 kg/ha) | Herbicide rating (0-9) CASOB (CASSIA OBTUSIFOLIA, L. [5]; 0.250 kg/ha) | Herbicide rating (0-9) CASOB (CASSIA OBTUSIFOLIA, L. [5]; 0.500 kg/ha)
3.0: AMBEL ([7]; Rate 0.500 kg/ha) | IPOSS (IPOMOEA SPP.; Rate 0.500 kg/ha)
9.0: GALAP (GALIUM APARINE; Rate 0.500 kg/ha) | CHEAL (CHENOPODIUM ALBUM, L.; Rate 0.500 kg/ha)
1.0: SETVI ([4]; Rate 0.500 kg/ha) | Herbicide rating (0-9) SETVI ([1]; 0.125 kg/ha) | Herbicide rating (0-9) SETVI ([1]; 0.250 kg/ha) | Herbicide rating (0-9) SETVI ([1]; 0.500 kg/ha) | ZEAMX (ZEA MAYS L.; Rate 0.500 kg/ha) | TRZAWO ([10]; Rate 0.250 kg/ha) | IPOSS (IPOMOEA SPP.; Rate 0.250 kg/ha)
0.0: SETVI ([4]; Rate 0.125 kg/ha) | SETVI ([4]; Rate 0.250 kg/ha) | ABUTH ([6]; Rate 0.125 kg/ha) | ABUTH ([6]; Rate 0.250 kg/ha) | ZEAMX (ZEA MAYS L.; Rate 0.125 kg/ha) | ZEAMX (ZEA MAYS L.; Rate 0.250 kg/ha) | AMBEL ([7]; Rate 0.125 kg/ha) | Herbicide rating (0-9) ECHCG ([2]; 0.125 kg/ha) | Herbicide rating (0-9) ECHCG ([2]; 0.250 kg/ha) | Herbicide rating (0-9) ECHCG ([2]; 0.500 kg/ha) | TRZAWO ([10]; Rate 0.125 kg/ha) | ECHCG ([11]; Rate 0.125 kg/ha) | ECHCG ([11]; Rate 0.250 kg/ha) | ECHCG ([11]; Rate 0.500 kg/ha) | ORYSAT ([12]; Rate 0.125 kg/ha) | GLXMAW ([13]; Rate 0.125 kg/ha) | GLXMAW ([13]; Rate 0.250 kg/ha) | GLXMAW ([13]; Rate 0.500 kg/ha) | IPOSS (IPOMOEA SPP.; Rate 0.125 kg/ha)
7.0: GALAP (GALIUM APARINE; Rate 0.125 kg/ha) | GALAP (GALIUM APARINE; Rate 0.250 kg/ha) | CHEAL (CHENOPODIUM ALBUM, L.; Rate 0.125 kg/ha)
2.0: AMBEL ([7]; Rate 0.250 kg/ha) | Herbicide rating (0-9) TRZAWO ([8]; 0.125 kg/ha) | Herbicide rating (0-9) TRZAWO ([8]; 0.250 kg/ha) | Herbicide rating (0-9) TRZAWO ([8]; 0.500 kg/ha) | CASOB (CASSIA OBTUSIFOLIA, L. [9]; Rate 0.125 kg/ha) | CASOB (CASSIA OBTUSIFOLIA, L. [9]; Rate 0.250 kg/ha) | TRZAWO ([10]; Rate 0.500 kg/ha) | ORYSAT ([12]; Rate 0.250 kg/ha)
6.0: CHEAL (CHENOPODIUM ALBUM, L.; Rate 0.250 kg/ha)
4.0: ABUTH ([6]; Rate 0.500 kg/ha) | CASOB (CASSIA OBTUSIFOLIA, L. [9]; Rate 0.500 kg/ha) | ORYSAT ([12]; Rate 0.500 kg/ha)
